# Measured values taken from patent US20260207624A1, “COADMINISTRATION OF ESTROGEN WITH ESTROGEN RECEPTOR MODULATOR OR DEGRADER OR ER TARGETED PROTAC FOR THE TREATMENT OF ESTROGEN RESPONSIVE CANCERS” (Duke University, priority 2022, published 2026).
# Tests used:
# [1] = tested on: Breast cancer cells; experiment: Anti-proliferative activity in breast cancer cell lines (DNA content, Hoechst staining); assay type: cell-based; settings: with estradiol 0.1 nM, 7 days after treatment
# Procedure: FIGS. 9A-9C. Anti-proliferative activities of SERDs in select breast cancer cell lines differ primarily in potency. Breast cancer cells were plated in phenol red free media supplemented with charcoal stripped FBS prior to treatment in triplicate wells with the indicated SERMs and SERM-like SERDs (FIG. 9A), acidic SERDs (FIG. 9B), basic SERDs (FIG. 9C) at 10^-12 to 10^-5 M final concentration, followed by addition of estradiol (E2, 0.1 nM) or insulin (2 nM, MCF7 cell line only, bottom panels). 7 days after treatment, plates were harvested and DNA quantitated using fluorescence following Hoechst staining. Average detected fluorescence was normalized to wells receiving no ligand treatment, and relative change in DNA fluorescence was calculated compared to wells treated only with E2. Data are representative of at least 3 independent experiments.
# [2] = target: T1, ER (Homo sapiens, UniProt P03372); experiment: ER downregulation in breast cancer cell lines by in-cell western; assay type: cell-based; settings: MCF7, BT483, T47D, ZR751, CAMA1 cells, 24 hours after treatment
# T1 construct: SERDs differ in the efficacy of ER downregulation in breast cancer cell lines; endogenous in cells; host or cells: MCF7, BT483, T47D, ZR751, CAMA1
# T1 sequence (P03372 1-595): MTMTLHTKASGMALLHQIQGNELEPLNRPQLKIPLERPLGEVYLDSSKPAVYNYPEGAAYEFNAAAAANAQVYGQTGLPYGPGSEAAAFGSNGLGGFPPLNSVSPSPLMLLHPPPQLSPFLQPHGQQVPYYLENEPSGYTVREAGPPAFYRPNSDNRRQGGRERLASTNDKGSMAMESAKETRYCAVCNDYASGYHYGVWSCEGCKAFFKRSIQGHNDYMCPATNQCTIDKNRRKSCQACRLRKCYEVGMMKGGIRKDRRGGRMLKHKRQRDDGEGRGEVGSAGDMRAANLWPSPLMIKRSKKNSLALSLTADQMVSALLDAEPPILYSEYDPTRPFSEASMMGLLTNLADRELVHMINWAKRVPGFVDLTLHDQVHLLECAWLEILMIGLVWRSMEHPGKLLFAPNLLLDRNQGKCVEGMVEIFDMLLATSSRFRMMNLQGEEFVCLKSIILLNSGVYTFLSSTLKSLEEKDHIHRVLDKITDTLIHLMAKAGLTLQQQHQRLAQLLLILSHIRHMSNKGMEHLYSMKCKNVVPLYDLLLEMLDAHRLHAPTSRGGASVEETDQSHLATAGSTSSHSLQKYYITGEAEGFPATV
# Procedure: FIGS. 8A-8B. SERDs differ in the efficacy of ER downregulation in breast cancer cell lines. Breast cancer cells, including MCF7, BT483, T47D, ZR751, and CAMA1, were plated in phenol red free media supplemented with charcoal stripped FBS prior to treatment in triplicate wells with the indicated SERMs or SERDs (10-11-10-5 M final concentration). 24 hours after treatment, cells were fixed to the plates, and ER levels were analyzed by in-cell western using a fluorophore conjugated secondary antibody. Average detected ER levels were normalized to well DNA content using DRAQ5 staining. Relative ER turnover was calculated as a ratio of normalized ER levels detected in treated wells to untreated wells. Data were representative of at least 3 independent experiments. Data for each cell line were graphed in 2 panels to categorize SERDs by chemical properties, separating basic SERDs (FIG. 8A) and those having carboxylic acid group(s) (FIG. 8B). Serm-like SERDs bazedoxifene and elacestrant were also presented in (FIG. 8A) for reference. Fulvestrant was included on both graphs for all cell lines to facilitate comparison.
structure (smiles),measurement,setting,value
CCNCCc1ccc(CN(CC)c2cc(OC)ccc2[C@@H]2CCc3cc(O)ccc3C2)cc1 [elacestrant],inhibition of cellular proliferation,[1],efficacy similar to that observed for other SERDs
same,ER downregulation / ER degradation,[2],generally the least efficient SERD
